Blank lines part the entries; values can stand above or below the compound they belong to.
Legend:
[1] = tested on: ichibi (velvetleaf, Abutilon theophrasti); assay: Experiment 3 foliage treatment: ichibi; assay type: in vivo; set-up: key: 5: completely killed; 4: seriously injured; 3: considerably injured; 2: somewhat injured; 1: slightly injured; 0: not injured (normally grown); conditions: 4 weeks after treatment
Protocol: (§1) Upon seedling stage (two- or three-leaved stage) of ichibi (velvetleaf, Abutilon theophrasti), onamomi (heartleaf cocklebur, Xanthium strumarium) (4L stage), noasagao (blue morningglory, Ipomoea indica) and ooinutade (pale smartweed, Persicaria lapathifolia) which were grown on a cultivated soil put in pots of 1/8850 ares, a selected compound obtained in a manner analogous to Example 8, in suspended wettable powder, was sprayed to each plant. After that, the pots were kept in a glass chamber to allow each plant to grow, and after the lapse of 4 weeks from the treatment with the selected compounds the herbicidal effects were evaluated. The evaluation of the herbicidal effects was similarly conducted as to that of Experiment 1.

[2] = tested on: onamomi (heartleaf cocklebur, Xanthium strumarium); assay: Experiment 3 foliage treatment: onamomi; assay type: in vivo; set-up: key: 5: completely killed; 4: seriously injured; 3: considerably injured; 2: somewhat injured; 1: slightly injured; 0: not injured (normally grown); conditions: 4 weeks after treatment
Protocol: as §1

[3] = tested on: noasagao (blue morningglory, Ipomoea indica); assay: Experiment 3 foliage treatment: noasagao; assay type: in vivo; set-up: key: 5: completely killed; 4: seriously injured; 3: considerably injured; 2: somewhat injured; 1: slightly injured; 0: not injured (normally grown); conditions: 4 weeks after treatment
Protocol: as §1

[4] = tested on: ooinutade (pale smartweed, Persicaria lapathifolia); assay: Experiment 3 foliage treatment: ooinutade; assay type: in vivo; set-up: key: 5: completely killed; 4: seriously injured; 3: considerably injured; 2: somewhat injured; 1: slightly injured; 0: not injured (normally grown); conditions: 4 weeks after treatment
Protocol: as §1

[5] = tested on: ichibi (velvetleaf, Abutilon theophrasti); assay: Experiment 6 foliage treatment: ichibi; assay type: in vivo; set-up: key: 5: completely killed; 4: seriously injured; 3: considerably injured; 2: somewhat injured; 1: slightly injured; 0: not injured (normally grown); conditions: foliage spray of wettable powder suspension, evaluated 4 weeks after treatment
Protocol: as §1, with “(4 L” for “(4L”, “11,” for “8,”, “as” for “as to”

[6] = tested on: onamomi (heartleaf cocklebur, Xanthium strumarium); assay: Experiment 6 foliage treatment: onamomi; assay type: in vivo; set-up: key: 5: completely killed; 4: seriously injured; 3: considerably injured; 2: somewhat injured; 1: slightly injured; 0: not injured (normally grown); conditions: foliage spray of wettable powder suspension, evaluated 4 weeks after treatment
Protocol: as §1, with “(4 L” for “(4L”, “11,” for “8,”, “as” for “as to”

[7] = tested on: noasagao (blue morningglory, Ipomoea indica); assay: Experiment 6 foliage treatment: noasagao; assay type: in vivo; set-up: key: 5: completely killed; 4: seriously injured; 3: considerably injured; 2: somewhat injured; 1: slightly injured; 0: not injured (normally grown); conditions: foliage spray of wettable powder suspension, evaluated 4 weeks after treatment
Protocol: as §1, with “(4 L” for “(4L”, “11,” for “8,”, “as” for “as to”

[8] = tested on: ooinutade (pale smartweed, Persicaria lapathifolia); assay: Experiment 6 foliage treatment: ooinutade; assay type: in vivo; set-up: key: 5: completely killed; 4: seriously injured; 3: considerably injured; 2: somewhat injured; 1: slightly injured; 0: not injured (normally grown); conditions: foliage spray of wettable powder suspension, evaluated 4 weeks after treatment
Protocol: as §1, with “(4 L” for “(4L”, “11,” for “8,”, “as” for “as to”

[9] = tested on: ichibi (velvetleaf, Abutilon theophrasti); assay: Experiment 9 foliage treatment: ichibi; assay type: in vivo; set-up: key: 5: completely killed; 4: seriously injured; 3: considerably injured; 2: somewhat injured; 1: slightly injured; 0: not injured (normally grown); conditions: foliage spray of wettable powder suspension, evaluated 4 weeks after treatment
Protocol: as §1, with “14,” for “8,”, “as” for “as to”

[10] = tested on: onamomi (heartleaf cocklebur, Xanthium strumarium); assay: Experiment 9 foliage treatment: onamomi; assay type: in vivo; set-up: key: 5: completely killed; 4: seriously injured; 3: considerably injured; 2: somewhat injured; 1: slightly injured; 0: not injured (normally grown); conditions: foliage spray of wettable powder suspension, evaluated 4 weeks after treatment
Protocol: as §1, with “14,” for “8,”, “as” for “as to”

[11] = tested on: noasagao (blue morningglory, Ipomoea indica); assay: Experiment 9 foliage treatment: noasagao; assay type: in vivo; set-up: key: 5: completely killed; 4: seriously injured; 3: considerably injured; 2: somewhat injured; 1: slightly injured; 0: not injured (normally grown); conditions: foliage spray of wettable powder suspension, evaluated 4 weeks after treatment
Protocol: as §1, with “14,” for “8,”, “as” for “as to”

[12] = tested on: ooinutade (pale smartweed, Persicaria lapathifolia); assay: Experiment 9 foliage treatment: ooinutade; assay type: in vivo; set-up: key: 5: completely killed; 4: seriously injured; 3: considerably injured; 2: somewhat injured; 1: slightly injured; 0: not injured (normally grown); conditions: foliage spray of wettable powder suspension, evaluated 4 weeks after treatment
Protocol: as §1, with “14,” for “8,”, “as” for “as to”

SMILES: CCc1cnc(C2=NC(C)(C(C)C)C(=O)N2)c(C(=O)O)c1 (stereo not shown) [Comparative agentC, Pursuit, reference compound]
Herbicidal Effect ichibi ([1]; 4 g/10a): 3 | Herbicidal Effect ichibi ([1]; 8 g/10a): 3 | Herbicidal Effect onamomi ([2]; 4 g/10a): 4 | Herbicidal Effect onamomi ([2]; 8 g/10a): 5 | Herbicidal Effect noasagao ([3]; 4 g/10a): 3 | Herbicidal Effect noasagao ([3]; 8 g/10a): 4 | Herbicidal Effect ooinutade ([4]; 4 g/10a): 5 | Herbicidal Effect ooinutade ([4]; 8 g/10a): 5 | Herbicidal Effect ichibi ([5]; 4 g/10a): 3 | Herbicidal Effect ichibi ([5]; 8 g/10a): 3 | Herbicidal Effect onamomi ([6]; 4 g/10a): 4 | Herbicidal Effect onamomi ([6]; 8 g/10a): 5 | Herbicidal Effect noasagao ([7]; 4 g/10a): 3 | Herbicidal Effect noasagao ([7]; 8 g/10a): 4 | Herbicidal Effect ooinutade ([8]; 4 g/10a): 5 | Herbicidal Effect ooinutade ([8]; 8 g/10a): 5 | Herbicidal Effet ichibi ([9]; 4 g/10a): 3 | Herbicidal Effet ichibi ([9]; 8 g/10a): 3 | Herbicidal Effet onamomi ([10]; 4 g/10a): 4 | Herbicidal Effet onamomi ([10]; 8 g/10a): 5 | Herbicidal Effet noasagao ([11]; 4 g/10a): 3 | Herbicidal Effet noasagao ([11]; 8 g/10a): 4 | Herbicidal Effet ooinutade ([12]; 4 g/10a): 5 | Herbicidal Effet ooinutade ([12]; 8 g/10a): 5

melting point: 124 to 124.5 °C
SMILES: COC(=O)Cc1sc(F)c(N(C(C)=O)C(=O)C2=C(C(=O)OC)CCCC2)c1Cl [compound 11, N-acetyl-N-(4-chloro-2-fluoro-5-methoxycarbonylmethylthiophenyl)-3,4,5,6-tetrahydrophthalamic acid methyl ester]
